Data taken from patent publication US20090192327A1, “METHODS AND COMPOSITIONS FOR INHIBITING BIOFILMS” (Sequoia Sciences, Inc., priority 2004, published 2009).
Values joined by “and” are separate entries in the source; they are usually repeats but may differ in a detail not shown here. Equal values may be shown once. Read-outs that look alike come from different tables or passages of the source.

How the values were obtained:
[1] = test system: Pseudomonas aeruginosa; assay: Minimum inhibitory concentration (NCCLS broth microdilution); assay type: cell-based; settings: LB media with 0.2% glucose; 35° C. for 20-24 hours
Method: The minimum inhibitory concentrations (MICs) for several of the specific biofilm inhibitors described herein were determined against several targets, including P. aeruginosa, E. coli, and Staphylococcus aureus. The MICs of the biofilm inhibitors were measured using the reference broth microdilution method recommended by the National Committee for Clinical Laboratory Standards (NCCLS). […] In each assay, positive and negative controls were employed, wherein the positive control included an antimicrobial agent with a known potency range that was used to ensure proper assay performance. The negative control, generally, included the solvent in which the test compounds were dissolved. In this example, the wells correlating to the negative controls included ethanol (without any biofilm inhibitors). […] Thus, each well contained a final volume of approximately 200 μl (not including the volume of the concentrated inhibitor). […] After bacterial inoculation and loading of test and control samples, the plate was incubated in an ambient air environment at 35° C. for 20-24 hours. The plate was subsequently rinsed, stained, and analyzed in accordance with the procedures described in Example 1. […] The minimum inhibitory concentrations were calculated as the lowest inhibitor concentration at which biofilm inhibition was observed.

[2] = test system: Staphylococcus aureus; assay: as above; assay type: cell-based; settings: LB media with 0.2% glucose; 35° C. for 20-24 hours
Method: (§1) The minimum inhibitory concentrations (MICs) for several of the specific biofilm inhibitors described herein were determined against several targets, including P. aeruginosa, E. coli, and Staphylococcus aureus. The MICs of the biofilm inhibitors were measured using the reference broth microdilution method recommended by the National Committee for Clinical Laboratory Standards (NCCLS).
(§2) […]. The negative control, generally, included the solvent in which the test compounds were dissolved. In this example, the wells correlating to the negative controls included ethanol (without any biofilm inhibitors).
(§3) In this example, 150 μl of sterile media was added to each well (LB media with 0.2% glucose), along with appropriate volumes of concentrated solutions of the inhibitors to be tested, followed by 50 μl of bacterial inoculum. Thus, each well contained a final volume of approximately 200 μl (not including the volume of the concentrated inhibitor). […]. The plate was subsequently rinsed, stained, and analyzed in accordance with the procedures described in Example 1.
(§4) Tables 7, 8, and 9 summarize the data observed and, specifically, the MICs calculated for the several compounds referenced therein against P. aeruginosa, E. coli, and S. aureus, respectively. The minimum inhibitory concentrations were calculated as the lowest inhibitor concentration at which biofilm inhibition was observed.

[3] = test system: Pseudomonas aeruginosa; assay: Microtiter plate biofilm inhibition assay (crystal violet); assay type: cell-based; settings: 10 μg/ml; LB media with 0.2% glucose; 24 hours at room temperature; average of three wells
Method: A microtiter plate assay was used to quantitatively measure the effect each tested compound had on the ability of bacteria to form a biofilm. In this example, a concentrated solution of each compound tested was loaded separately into three separate wells of a polystyrene microtiter plate. In addition, each assay included triplicate wells correlating to negative and positive controls. For the positive controls, biofilm inhibitors of known activity were used, whereas no inhibitors were added to wells correlating to negative controls. […] Thus, each well contained a final volume of approximately 200 μl (not including the volume of the concentrated inhibitor). […] The microtiter plates were then placed on a shaker for 24 hours at room temperature. After the 24 hour incubation period, the microtiter plate was removed from the shaker, rinsed, and stained. During the rinsing step, the test compound, media, and bacterial inoculum solution was drained from the plate, approximately 300 μl of 0.1M phosphate buffered saline (PBS) was added to each well, which was subsequently drained from the plate. The rinsing step removed any suspended cells from the assay. 0.1% crystal violet stain was added to each well for approximately 20 minutes. Next, the crystal violet solution was drained from the microtiter plate. The plate was rinsed with PBS as described above four (4) times to remove any excess stain from the plate. Following the PBS rinsing steps, the plate was eluted with 250 μl/well of ethanol, which improved the detection of the stain. The plate was immediately analyzed spectrophotometrically at 540 nm using a microtiter plate reader. The inhibitory effect each compound had on the bacteria's ability to form a biofilm on the surface of each well was determined as follows: The absorbance values observed for each set of three (3) wells correlating with a test compound or control were averaged. The average absorbance value for each test compound was compared to the average absorbance value of the negative control (the positive control was employed to verify proper assay function). In general, biofilm inhibition activity is inversely proportional to absorbance values, whereby, for example, low absorbance values correlate with significant inhibition activity and high absorbance values correlate with small or no inhibition activity. The approximate percent inhibition observed for each compound was calculated by comparing the average absorbance value for each test compound to the average absorbance value for the negative controls. Table 2 summarizes the average percent inhibition observed for the tested compounds listed against biofilms generated by Pseudomonas aeruginosa.

[4] = test system: P. aeruginosa; settings: 10 μg/mL
Method: In general, flow cell analysis begins by inoculating a microorganism into test and control flow cells along with the appropriate growth media (which may vary depending upon the organism involved). The microorganisms are maintained in the flow cells until they have produced biofilms having the desired coverage and thickness. Thereafter, the test flow cells are treated with appropriate concentrations of test inhibitors. […] Such negative controls may be used as reference points when measuring biofilm inhibition activity.
After the appropriate flow cells are treated with the test inhibitors, Live/Dead stain is applied to each flow cell for approximately 45 minutes. Any currently-available Live/Dead stain may be employed in this procedure, such as LIVE BacLight™ Bacterial Gram stain (Molecular Probes, Inc., Eugene, Oreg., USA). The biofilm is subsequently rinsed with sterile media to remove excess stain, and the sample is transferred to a confocal microscope for imaging. The Live/Dead stain differentially stains the bacterial cells with green for Live and red for Dead. In a flow cell environment, it is generally understood that bacteria require the presence of biofilms to propagate. Accordingly, the activity of a biofilm inhibitor may be indirectly measured by comparing the number of live bacterial cells included in a flow cell that contained a test inhibitor to that of a negative control.
The negative control flow cells included the inoculum in LB media with 0.2% glucose without any inhibitors. […] The test and control cells were subsequently stained and analyzed as described above.
In this example, the number of live colony forming units (CFU) detected in the sample flow cells were compared to that of the negative control to indirectly measure biofilm inhibition.

[5] = test system: Escherichia coli; assay: Minimum inhibitory concentration (NCCLS broth microdilution); assay type: cell-based; settings: LB media with 0.2% glucose; 35° C. for 20-24 hours
Method: as §1, §2, §3, §4

[6] = live CFU compared to negative control flow cell

Row | SMILES | MIC (μg/mL) - Pseudomonas aeruginosa [1] | Biofilm Inhibition- Pseudomonas aeruginosa [3] | further results
1 | C[C@@H]1[C@H]2C3=CC[C@@H]4[C@@]5(C)CC[C@H](OC(=O)/C=C\c6ccc(O)cc6)C(C)(C)[C@@H]5CC[C@@]4(C)[C@]3(C)CC[C@@]2(C(=O)O)CC[C@]1(C)O (relative stereo) [Compound 188, 3β-O-cis-p-coumaroyl-20β-hydroxy-12-ursen-28-oic acid] | >10 µg/mL | – | –
2 | C[C@H]1[C@H](CO)C[C@@H](C(=O)O)C2CC[C@]3(C)C(=CCC4[C@@]5(C)CC[C@H](O)C(C)(C)C5CC[C@]43C)[C@@H]21 (stereo partly shown) [Compound 99] | >10 µg/mL | 30% | MIC (μg/mL) - Staphylococcus aureus [2]: >32 µg/mL
3 | CC1(C)C[C@@H](C(=O)O)C2CCC3C(=CCC4C3(C)CCC3C4(C)C[C@@H](O)[C@H](O)C3(C)C)[C@@H]2C1 (stereo partly shown) [Compound 107] | >10 µg/mL | 46% | –
4 | COc1cc(/C=C/C(=O)OC2C(O)CC3(C)C(CCC4(C)C3CC=C3C5C(C)C(C)CCC5(C(=O)O)CCC34C)C2(C)C)ccc1O (stereo not drawn) [Compound 116, 3α-O-trans-feruloyl-2α-hydroxy-12-ursen-28-oic acid] | >10 µg/mL | – | Flow Cell with Compound 116 (CFU), Average ([4]; LB media with 0.2% glucose, applied approximately 4 hours after inoculum, average): 1.76E+06 CFU; Flow Cell with Compound 116 (CFU), single flow cell ([4]; LB media with 0.2% glucose, applied approximately 4 hours after inoculum, individual values): 2.06E+06 CFU and 1.46E+06 CFU; Log Reduction [4, 6]: 0.28; Percent Reduction [4, 6]: 47%; Percent Reduction ([4]; live CFU compared to negative control flow cell, listed as compound 116): ~47%
5 | C[C@H]1[C@H](C)CC[C@]2(C(=O)O)CCC3C(=CCC4[C@@]3(C)CCC3C(C)(C)[C@@H](OC(=O)/C=C/c5ccc(O)cc5)[C@H](O)C[C@@]34C)[C@H]12 (stereo partly shown) [Compound 189] | >10 µg/mL | 35% | –
6 | C[C@@H]1C[C@@H](C(=O)O)C2CC[C@]3(C)C(=CCC4[C@@]5(C)C[C@@H](O)[C@H](O)C(C)(C)C5CC[C@]43C)[C@@H]2[C@]1(C)O (stereo partly shown) [Compound 192] | >10 µg/mL | 32% | –
7 | C[C@@H]1[C@H]2C3=CCC4[C@@]5(C)CC[C@H](O)C(C)(C)C5CC[C@@]4(C)[C@]3(C)CC[C@@]2(C(=O)O)CC[C@]1(C)O (stereo partly shown) [Compound 195] | >10 µg/mL | 25% | MIC (μg/mL) - Staphylococcus aureus [2]: >8 µg/mL
8 | C[C@@H]1CC[C@]2(C(=O)O)CC[C@]3(C)C(=CCC4[C@@]5(C)C[C@@H](O)[C@H](O)C(C)(C)C5CC[C@]43C)[C@@H]2[C@]1(C)O (stereo partly shown) [Compound 203] | >10 µg/mL | 43% | –
9 | CC1(C)CC[C@]2(C(=O)O)CC[C@]3(C)C(=CC[C@@H]4[C@@]5(C)CC[C@H](O)C(C)(C)[C@@H]5CC[C@]43C)[C@@H]2C1 [Compound 225] | – | – | MIC (μg/mL) - Escherichia coli [5]: >10 µg/mL
